Laboratory results: US20260152484A1, “HETEROCYCLIC COMPOUNDS AS TRIGGERING RECEPTOR EXPRESSED ON MYELOID CELLS 2 AGONISTS” (Vigil Neuroscience, Inc., priority 2021, published 2026)

Target: T1, human TREM2 (Homo sapiens, UniProt Q9NZC2)
T1 construct: expressed in transfected cells; host or cells: HEK293T (HEK293T-hTREM2 cells)
Assay: Cellular phosphorylation of Syk (AlphaLisa) in HEK293T-hTREM2 cells, TREM2 agonist potency
Type: cell-based
Details: HEK293 cells expressing human TREM2 and DAP12, pSyk AlphaLisa
Experimental: In Vitro Measurement of Triggering Receptor Expressed on Myeloid Cells 2 Activity Using Cellular Phosphorylation of Spleen Tyrosine Kinase (“Syk”) Assays
Measurement of TREM2 agonist potency was done using a HEK cell line expressing human TREM2 and DAP12 (HEK293T-hTREM2 cells). Binding of small molecules to, and activation of, TREM2 increases the phosphorylation of Syk. The resultant levels of Syk phosphorylation are measured using a commercial AlphaLisa reagent kit. To perform the assay, HEK-hTREM2 cells were plated at 14,000 cells per well in a 384 well plate, in 25 μL of complete growth media and incubated at 37° C., 5% CO2 for 20-24 hours.
Prior to the assay, test compounds were diluted in the 384 well plates in assay buffer and allowed to equilibrate for 30 minutes. Growth media was removed from cell plates by inversion on blotting paper, and 25 μL of test articles in assay buffer was added to cells. Cells were incubated for 45 minutes at room temperature. After 45 minutes, assay buffer was removed and 10 μL of lysis buffer was added. Plates were shaken for 20 minutes at 350 RPM at room temperature. After complete lysis, AlphaLisa reagents were added to the lysate, and fluourescence intensity was measured using a Perkin Elmer Envision plate reader. Intensities were used to generate a standard curve, and % activation was calculated. Curve fitting was performed using Prism v9 software, log(agonist) vs response—variable slope (four parameters), and EC50s were calculated from the curve fit.
The results presented in Table D have been generated with the in vitro assay described above. This assay may be used to test any of the compounds described herein to assess and characterize a compound's ability to act as an agonist of TREM2.

T1 sequence (Q9NZC2 19-230): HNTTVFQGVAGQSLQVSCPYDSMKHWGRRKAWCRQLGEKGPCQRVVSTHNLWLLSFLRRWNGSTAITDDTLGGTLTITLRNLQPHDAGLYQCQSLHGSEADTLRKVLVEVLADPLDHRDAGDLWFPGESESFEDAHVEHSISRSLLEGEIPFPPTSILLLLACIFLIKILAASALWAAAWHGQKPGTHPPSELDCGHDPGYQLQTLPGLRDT
T1 sequence (O43914 22-113 partner): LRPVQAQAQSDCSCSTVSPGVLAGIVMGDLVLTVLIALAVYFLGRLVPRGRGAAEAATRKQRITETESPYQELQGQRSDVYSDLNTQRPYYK

Structure (SMILES) | EC50 (Table D-2) [µM] | EC50 (Table D) [µM]
Cc1nc2c(-c3ccc(C(F)(F)F)cc3F)cn([C@H]3CCO[C@@H](c4cnn(C5CC5)c4)C3)c(=O)c2nc1C [I-123, 6-[(2R,4S)-2-(1-cyclopropyl-1H-pyrazol-4-yl)tetrahydro-2H-pyran-4-yl]-8-[2-fluoro-4-(trifluoromethyl)phenyl]-2,3-dimethylpyrido[3,4-b]pyrazin-5 (6H)-one] | 0.5 to 3 | –
Cc1cc2c(-c3ccc(Cl)cc3)nn(-c3ccc(OC(F)(F)F)cc3)c(=O)c2nc1C [compound 1, 5-(4-chlorophenyl)-2,3-dimethyl-7-(4-(trifluoromethoxy)phenyl)pyrido[2,3-d]pyridazin-8 (7H)-one] | – | 0.5 to 3
Cc1cc2c(-c3ccc(Cl)cc3)nn(-c3ccc(OC(F)(F)F)cc3)c(=O)c2cc1C [compound 10, 4-(4-chlorophenyl)-6,7-dimethyl-2-(4-(trifluoromethoxy)phenyl)phthalazin-1(2H)-one] | – | 0.5 to 3
CC(C)n1ccc(-n2nc(-c3ccc(Cl)cc3)c3cc(Cl)c(Cl)cc3c2=O)cc1=O [compound 11, 6,7-dichloro-4-(4-chlorophenyl)-2-(1-isopropyl-2-oxo-1,2-dihydropyridin-4-yl)phthalazin-1(2H)-one] | – | 0.5 to 3
CC(C)Oc1cc(-n2nc(-c3ccc(Cl)cc3)c3cc(Cl)c(Cl)cc3c2=O)ccn1 [compound 12, 6,7-dichloro-4-(4-chlorophenyl)-2-(2-isopropoxypyridin-4-yl)phthalazin-1(2H)-one] | – | 0.5 to 3
CC(=O)N1CCC(n2nc(-c3ccc(Cl)cc3)c3cc(Cl)c(Cl)cc3c2=O)CC1 [compound 13, 2-(1-acetylpiperidin-4-yl)-6,7-dichloro-4-(4-chlorophenyl)phthalazin-1(2H)-one] | – | 3 to 100
Cc1cc2c(-c3ccc(Cl)cc3)nn(-c3ccnc(C4COC4)c3)c(=O)c2cc1C [compound 14, 4-(4-chlorophenyl)-6,7-dimethyl-2-(2-(oxetan-3-yl)pyridin-4-yl)phthalazin-1(2H)-one] | – | 0.5 to 3
Cc1cc2c(-c3ccc(Cl)cc3)nn(-c3ccnc(C4CCC4)c3)c(=O)c2cc1C [compound 15, 4-(4-chlorophenyl)-2-(2-cyclobutylpyridin-4-yl)-6,7-dimethylphthalazin-1(2H)-one] | – | 0.5 to 3
Cc1cc2c(-c3ccc(Cl)cc3)nn(-c3ccnc(C4CNC4)c3)c(=O)c2cc1C [compound 16, 2-(2-(azetidin-3-yl)pyridin-4-yl)-4-(4-chlorophenyl)-6,7-dimethylphthalazin-1(2H)-one] | – | 0.5 to 3
Cc1cc2c(-c3ccc(Cl)cc3)nn(-c3ccc(C4CC4)nc3)c(=O)c2cc1C [compound 17, 4-(4-chlorophenyl)-2-(6-cyclopropylpyridin-3-yl)-6,7-dimethylphthalazin-1(2H)-one] | – | 3 to 100
Cc1cc2c(-c3ccc(Cl)cc3)nn(-c3ccnc(N4CCN(C(=O)OC(C)(C)C)CC4)c3)c(=O)c2cc1C [compound 18, tert-butyl 4-(4-(4-(4-chlorophenyl)-6,7-dimethyl-1-oxophthalazin-2(1H)-yl)pyridin-2-yl)piperazine-1-carboxylate] | – | 0.5 to 3

Continued, values first:

EC50 (Table D-2) [µM] | EC50 (Table D) [µM] | Structure (SMILES)
– | 3 to 100 | Cc1cc2c(-c3ccc(Cl)cc3)nn(-c3ccc4c(c3)OCO4)c(=O)c2cc1C [compound 19, 2-(benzo[d][1,3]dioxol-5-yl)-4-(4-chlorophenyl)-6,7-dimethylphthalazin-1(2H)-one]
– | 0.5 to 3 | Cc1cc2c(-c3ccc(Cl)cc3)nn(-c3ccnc(OC4CN(C(=O)OC(C)(C)C)C4)c3)c(=O)c2cc1C [compound 20, tert-butyl 3-((4-(4-(4-chlorophenyl)-6,7-dimethyl-1-oxophthalazin-2(1H)-yl)pyridin-2-yl)oxy)azetidine-1-carboxylate]
– | 3 to 100 | CN1CCC(n2nc(-c3ccc(Cl)cc3)c3cc(Cl)c(Cl)cc3c2=O)CC1=O (stereo not drawn) [compound 21, 6,7-dichloro-4-(4-chlorophenyl)-2-(1-methyl-2-oxopiperidin-4-yl)phthalazin-1(2H)-one]
– | 0.5 to 3 | Cc1cc2c(-c3ccc(Cl)cc3)nn(-c3ccnc(C4CCN(C(=O)OC(C)(C)C)CC4)c3)c(=O)c2cc1C [compound 22, tert-butyl 4-(4-(4-(4-chlorophenyl)-6,7-dimethyl-1-oxophthalazin-2(1H)-yl)pyridin-2-yl)piperidine-1-carboxylate]
– | 0.5 to 3 | Cc1ccc2c(-c3ccc(Cl)cc3)nn(-c3ccc(OC(F)(F)F)cc3)c(=O)c2n1 [compound 23, 5-(4-chlorophenyl)-2-methyl-7-(4-(trifluoromethoxy)phenyl)pyrido[2,3-d]pyridazin-8(7H)-one]
– | 3 to 100 | Cc1nc2c(=O)n(CC(=O)c3ccc(Cl)cc3)nc(-c3ccc(Cl)cc3)c2s1 [compound 24, 7-(4-chlorophenyl)-5-(2-(4-chlorophenyl)-2-oxoethyl)-2-methylthiazolo[4,5-d]pyridazin-4(5H)-one]
– | 3 to 100 | CNC(Cn1nc(-c2ccc(Cl)cc2)c2sc(C)nc2c1=O)c1ccc(Cl)cc1 (stereo not drawn) [compound 25, 7-(4-chlorophenyl)-5-(2-(4-chlorophenyl)-2-(methylamino)ethyl)-2-methylthiazolo[4,5-d]pyridazin-4(5H)-one]
– | 3 to 100 | Cc1nc2c(=O)n(CC(O)c3ccc(Cl)cc3)nc(-c3ccc(Cl)cc3)c2s1 (stereo not drawn) [compound 26, 7-(4-chlorophenyl)-5-(2-(4-chlorophenyl)-2-hydroxyethyl)-2-methylthiazolo[4,5-d]pyridazin-4(5H)-one]
– | 3 to 100 | Cc1nc2c(=O)n(C(C)c3ccc(Cl)cc3)nc(-c3ccc(Cl)cc3)c2s1 (stereo not drawn) [compound 27, 7-(4-chlorophenyl)-5-(1-(4-chlorophenyl)ethyl)-2-methylthiazolo[4,5-d]pyridazin-4(5H)-one]
– | 3 to 100 | Cc1nc2c(=O)n(CCc3ccccc3)nc(-c3ccc(Cl)cc3)c2s1 [compound 28, 7-(4-chlorophenyl)-2-methyl-5-phenethylthiazolo[4,5-d]pyridazin-4(5H)-one]
– | 3 to 100 | Cc1nc2c(=O)n(CCc3ccccc3)nc(-c3ccccc3)c2s1 [compound 29, 2-methyl-5-phenethyl-7-phenylthiazolo[4,5-d]pyridazin-4(5H)-one]
– | 3 to 100 | Cc1nc2c(=O)n(C(C)Cc3ccc(Cl)cc3)nc(-c3ccc(Cl)cc3)c2s1 (stereo not drawn) [compound 30, 7-(4-chlorophenyl)-5-(1-(4-chlorophenyl)propan-2-yl)-2-methylthiazolo[4,5-d]pyridazin-4 (5H)-one]
– | 3 to 100 | Cc1nc2c(=O)n(CC(C)c3ccc(Cl)cc3)nc(-c3ccc(Cl)cc3)c2s1 (stereo not drawn) [compound 31, 7-(4-chlorophenyl)-5-(2-(4-chlorophenyl)propyl)-2-methylthiazolo[4,5-d]pyridazin-4(5H)-one]
– | 3 to 100 | Cc1nc2c(=O)n(CCc3ccccc3)nc(-c3ccc(Cl)c(Cl)c3)c2s1 [compound 32, 7-(3,4-dichlorophenyl)-2-methyl-5-phenethylthiazolo[4,5-d]pyridazin-4(5H)-one]
– | 3 to 100 | Nc1nc2c(=O)n(CCc3ccccc3)nc(-c3ccc(Cl)cc3)c2s1 [compound 33, 2-amino-7-(4-chlorophenyl)-5-phenethylthiazolo[4,5-d]pyridazin-4(5H)-one]
– | 3 to 100 | Cc1ccc(-c2nn(CCc3ccccc3)c(=O)c3nc(C)sc23)cc1 [compound 34, 2-methyl-5-phenethyl-7-(p-tolyl)thiazolo[4,5-d]pyridazin-4(5H)-one]
